Test results taken from ChEMBL document CHEMBL1201862, “PubChem BioAssay data set” (2004).
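Protocol summary: plate cells (96-well), add compound at 5 concentrations, incubate 48 h, interpolate endpoints linearly. The concentration for 50% growth inhibition is given as GI50.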 Calls of active or inactive are those of the source. No stated cut-off is given here; in the data, active = GI50 up to about 1.1 µM and inactive = higher.

What was measured:
Assay in all cases: DTP human tumour cell line panel, 48 h
SW-620 = system: SW-620
SR = system: SR
HL-60 = system: HL-60
MDA-MB-231 = system: MDA-MB-231
HCT-116 = system: HCT-116
HCC 2998 = system: HCC 2998
IGROV-1 = system: IGROV-1
UO-31 = system: UO-31
M14 = system: M14
OVCAR-5 = system: OVCAR-5
DU-145 = system: DU-145
HOP-92 = system: HOP-92
SN12C = system: SN12C
CAKI-1 = system: CAKI-1
SF-539 = system: SF-539
UACC-62 = system: UACC-62
BT-549 = system: BT-549
NCI-H23 = system: NCI-H23
HOP-62 = system: HOP-62
OVCAR-3 = system: OVCAR-3
MCF7 = system: MCF7
PC-3 = system: PC-3
COLO 205 = system: COLO 205
LOX IMVI = system: LOX IMVI
NCI-H460 = system: NCI-H460
EKVX = system: EKVX
Malme-3M = system: Malme-3M
RPMI-8226 = system: RPMI-8226
A549 = system: A549
MDA-N = system: MDA-N
CCRF-CEM = system: CCRF-CEM
MDA-MB-435 = system: MDA-MB-435
SF-295 = system: SF-295
OVCAR-4 = system: OVCAR-4
SK-OV-3 = system: SK-OV-3
K562 = system: K562
SK-MEL-28 = system: SK-MEL-28
UACC-257 = system: UACC-257
SK-MEL-2 = system: SK-MEL-2
T47D = system: T47D
MOLT-4 = system: MOLT-4
KM12 = system: KM12
OVCAR-8 = system: OVCAR-8
HT-29 = system: HT-29
SK-MEL-5 = system: SK-MEL-5
SNB-75 = system: SNB-75
U-251 = system: U-251
SF-268 = system: SF-268
NCI/ADR-RES = system: NCI/ADR-RES
A498 = system: A498
HCT-15 = system: HCT-15
786-0 = system: 786-0
ACHN = system: ACHN
RXF 393 = system: RXF 393
SNB-19 = system: SNB-19
Hs-578T = system: Hs-578T
TK-10 = system: TK-10
NCI-H522 = system: NCI-H522
NCI-H226 = system: NCI-H226

SMILES: CC(=O)NC1C(OCc2ccccc2)OC(CO)C(O)C1OCC(=O)NC(C)C(=O)NC(CCC(=O)NCCCCCC(=O)Nc1ccc2c(c1)CN1C(=O)c3ccccc3C1=N2)C(N)=O (centres undefined)
- GI50 (SW-620): 43.5 µM (inactive)
- GI50 (SR): 17.4 µM (inactive)
- GI50 (HL-60): > 100 µM (inactive)
- GI50 (MDA-MB-231): > 100 µM (inactive)
- GI50 (HCT-116): 39.6 µM (inactive)
- GI50 (HCC 2998): 61.4 µM (inactive)
- GI50 (IGROV-1): > 100 µM (inactive)
- GI50 (UO-31): > 100 µM (inactive)
- GI50 (M14): > 100 µM (inactive)
- GI50 (OVCAR-5): > 100 µM (inactive)
- GI50 (DU-145): > 100 µM (inactive)
- GI50 (HOP-92): 25.3 µM (inactive)
- GI50 (SN12C): 69.8 µM (inactive)
- GI50 (CAKI-1): > 100 µM (inactive)
- GI50 (SF-539): > 100 µM (inactive)
- GI50 (UACC-62): 57.3 µM (inactive)
- GI50 (BT-549): > 100 µM (inactive)
- GI50 (NCI-H23): 67.5 µM (inactive)
- GI50 (HOP-62): 41 µM (inactive)
- GI50 (OVCAR-3): > 100 µM (inactive)
- GI50 (MCF7): 35.6 µM (inactive)
- GI50 (PC-3): 58.6 µM (inactive)
- GI50 (COLO 205): > 100 µM (inactive)
- GI50 (LOX IMVI): 53.1 µM (inactive)
- GI50 (NCI-H460): 43.1 µM (inactive)
- GI50 (EKVX): > 100 µM (inactive)
- GI50 (Malme-3M): 78.3 µM (inactive)
- GI50 (RPMI-8226): 38 µM (inactive)
- GI50 (A549): 72.8 µM (inactive)
- GI50 (MDA-N): > 100 µM (inactive)
- GI50 (CCRF-CEM): 32.7 µM (inactive)
- GI50 (MDA-MB-435): > 100 µM (inactive)
- GI50 (SF-295): 75.7 µM (inactive)
- GI50 (OVCAR-4): > 100 µM (inactive)
- GI50 (SK-OV-3): > 100 µM (inactive)
- GI50 (K562): 45 µM (inactive)
- GI50 (SK-MEL-28): > 100 µM (inactive)
- GI50 (UACC-257): > 100 µM (inactive)
- GI50 (SK-MEL-2): > 100 µM (inactive)
- GI50 (T47D): > 100 µM (inactive)
- GI50 (MOLT-4): 42.1 µM (inactive)
- GI50 (KM12): 34.5 µM (inactive)
- GI50 (OVCAR-8): 49.5 µM (inactive)
- GI50 (HT-29): > 100 µM (inactive)
- GI50 (SK-MEL-5): 75 µM (inactive)
- GI50 (SNB-75): 49.8 µM (inactive)
- GI50 (U-251): 48.3 µM (inactive)
- GI50 (SF-268): 63.8 µM (inactive)
- GI50 (NCI/ADR-RES): > 100 µM (inactive)
- GI50 (A498): > 100 µM (inactive)
- GI50 (HCT-15): > 100 µM
- GI50 (786-0): 82.8 µM (inactive)
- GI50 (ACHN): 62.8 µM (inactive)
- GI50 (RXF 393): > 100 µM (inactive)
- GI50 (SNB-19): 63.1 µM (inactive)
- GI50 (Hs-578T): > 100 µM (inactive)
- GI50 (TK-10): 30.3 µM (inactive)

SMILES: O=C1/C(=C2/C(=O)N(c3ccccc3)c3ccccc32)Nc2ccccc21
- GI50 (SW-620): 63.1 µM (inactive)
- GI50 (SR): 61.2 µM (inactive)
- GI50 (MDA-MB-231): 18.9 µM (inactive)
- GI50 (HCT-116): 36.6 µM (inactive)
- GI50 (HCC 2998): 32.3 µM (inactive)
- GI50 (IGROV-1): 19.8 µM (inactive)
- GI50 (UO-31): 43.7 µM (inactive)
- GI50 (M14): 38.1 µM (inactive)
- GI50 (OVCAR-5): 51.1 µM (inactive)
- GI50 (DU-145): 27 µM (inactive)
- GI50 (HOP-92): 25.9 µM (inactive)
- GI50 (SN12C): 59.8 µM (inactive)
- GI50 (CAKI-1): 45.5 µM (inactive)
- GI50 (UACC-62): > 100 µM (inactive)
- GI50 (BT-549): 45 µM (inactive)
- GI50 (NCI-H23): 63.5 µM (inactive)
- GI50 (HOP-62): 31.8 µM (inactive)
- GI50 (OVCAR-3): 52 µM (inactive)
- GI50 (MCF7): 11.9 µM (inactive)
- GI50 (PC-3): 26.7 µM (inactive)
- GI50 (COLO 205): 24.7 µM (inactive)
- GI50 (LOX IMVI): 78.3 µM (inactive)
- GI50 (NCI-H460): 46.2 µM (inactive)
- GI50 (EKVX): 24.2 µM (inactive)
- GI50 (Malme-3M): 73.1 µM (inactive)
- GI50 (RPMI-8226): > 100 µM (inactive)
- GI50 (A549): 37.2 µM (inactive)
- GI50 (MDA-N): > 100 µM (inactive)
- GI50 (CCRF-CEM): 92.3 µM (inactive)
- GI50 (MDA-MB-435): 66.8 µM (inactive)
- GI50 (SF-295): 48.4 µM (inactive)
- GI50 (OVCAR-4): 25.5 µM (inactive)
- GI50 (SK-OV-3): 43.6 µM (inactive)
- GI50 (K562): 42.2 µM (inactive)
- GI50 (SK-MEL-28): > 100 µM (inactive)
- GI50 (UACC-257): 37.4 µM (inactive)
- GI50 (SK-MEL-2): 35.5 µM (inactive)
- GI50 (T47D): 0.571 µM (active)
- GI50 (MOLT-4): 35.2 µM (inactive)
- GI50 (KM12): > 100 µM (inactive)
- GI50 (NCI-H522): 66.5 µM (inactive)
- GI50 (NCI-H226): 27.9 µM (inactive)
- GI50 (OVCAR-8): 47.8 µM (inactive)
- GI50 (HT-29): 59 µM (inactive)
- GI50 (SK-MEL-5): 22.3 µM (inactive)
- GI50 (SNB-75): 14.9 µM (inactive)
- GI50 (U-251): 31.8 µM (inactive)
- GI50 (SF-268): 36.4 µM (inactive)
- GI50 (NCI/ADR-RES): > 100 µM (inactive)
- GI50 (A498): 24.5 µM (inactive)
- GI50 (HCT-15): 50 µM
- GI50 (786-0): 15 µM (inactive)
- GI50 (ACHN): 21.2 µM (inactive)
- GI50 (RXF 393): 15 µM (inactive)
- GI50 (SNB-19): 29.6 µM (inactive)
- GI50 (Hs-578T): 58.2 µM (inactive)
- GI50 (TK-10): 27 µM (inactive)
